Measurements reported in patent US8575135B2 (Gilead Sciences, Inc., priority 2011, dated 2013).
Like-named read-outs stand apart in the source and are kept apart here.

Legend:
Test in all cases: microbe, parasite or virus in culture
Conditions in all cases: Hepatitis C virus
[1] = test system: NS5A chimeric genotype 2a JFH-1 replicon with genotype 2a J6 strain NS5A gene (M31 present); format: cell-based, HCV
[2] = test system: NS5A chimeric genotype 2a JFH-1 replicon with genotype 2b MD2b-1 strain NS5A gene (M31 present); format: cell-based, HCV
Outline: (§1)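 Con1-based 3a and 4a chimeras carried a Pi-RLuc reporter and were transiently transfected into Huh-Lunet cells; the JFH-1-based 2b chimera (RLuc-Neo) was used transiently or as stable replicon cells.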

[3] = test system: NS5A chimeric genotype 1b Con1 replicon with genotype 3a S52 strain NS5A gene; format: cell-based, HCV
Outline: as §1

[4] = test system: 1a Pi-Rluc replicon with Q30R in genotype 1a NS5A; format: cell-based, HCV
Procedure: Antiviral potency (EC50) was determined using a Renilla luciferase (RLuc)-based HCV replicon reporter assay. […] To perform the assay for genotype 2a (with M31 present in NS5A) or 2b, NS5A chimeric genotype 2a JFH-1 replicons that encodes a RLuc-Neo reporter and either genotype 2a J6 strain NS5A gene or genotype 2b MD2b-1 strain NS5A gene (both with M31 present) respectively, were either transiently transfected (t) into Huh-Lunet cells or were established as stably replicating replicon cells (s) is provided. Either cells were dispensed into 384-well plates for EC50 assays. To perform the assay for genotype 3 and 4, NS5A chimeric genotype 1b Con1 replicons that encodes a Pi-RLuc reporter and either genotype 3a S52 strain NS5A gene or genotype 4a ED43 strain NS5A gene respectively, were transiently transfected (t) into Huh-Lunet cells, which were subsequently dispensed into 384-well plates. Compounds were dissolved in DMSO at a concentration of 10 mM and diluted in DMSO either manually or using an automated pipeting instrument. Serially 3-fold diluted compounds were either manually mixed with cell culture media and added to the seeded cells or directly added to the cells using an automated instrument. […] 72 hours later, cells were lysed and Renilla luciferase activity quantified as recommended by the manufacturer (Promega-Madison, Wis.). Non-linear regression was performed to calculate EC50 values.
To determine the antiviral potency (EC50) against resistance mutants, resistance mutations, including M28T, Q30R, Q30H, L31M, and Y93C in genotype 1a NS5A and Y93H in genotype 1b NS5A, were introduced individually into either 1a Pi-Rluc or 1b Pi-Rluc replicons by site directed mutagenesis. Replicon RNA of each resistant mutant was transiently transfected into Huh-7-derived cured-51 cells and antiviral potency was determined on these transfected cells as described above.

[5] = test system: stable HCV 2a JFH-1 Rluc replicon cells (L31 present in NS5A); format: cell-based
[6] = test system: stable HCV 1a RLuc replicon cells (genotype 1a H77 replicon); format: cell-based
[7] = test system: NS5A chimeric genotype 1b Con1 replicon with genotype 4a ED43 strain NS5A gene; format: cell-based, HCV

COC(=O)N[C@H](C(=O)N1C[C@@H](C)C[C@H]1c1nc2ccc3cc4c(cc3c2[nH]1)OCc1cc(-c2cnc([C@@H]3C[C@H](C)CN3C(=O)[C@H](NC(=O)OC)c3ccccc3)[nH]2)ccc1-4)C(C)C [Example PG, methyl {(1R)-2-[(2S,4S)-2-(5-{2-[(2S,4S)-1-{(2S)-2-[(methoxycarbonyl)amino]-3-methylbutanoyl}-4-methylpyrrolidin-2-yl]-1,11-dihydroisochromeno[4′,3′:6,7]naphtho[1,2-d]imidazol-9-yl}-1H-imidazol-2-yl)-4-methylpyrrolidin-1-yl]-2-oxo-1-phenylethyl}carbamate]
EC50 ([1]; read-out: 2a J6): < 1 nM | EC50 ([1]; read-out: 2a J6 (s) (nM)): 0.335 nM | EC50 ([1]; read-out: 2a Jb (t) (nM)): 0.045 nM | EC50 ([2]; read-out: 2b): < 1 nM | EC50 ([2]; read-out: 2b (s) (nM)): 0.119 nM | EC50 ([2]; read-out: 2b (t) (nM)): 0.027 nM | EC50 ([3]; read-out: 3a): < 1 nM | EC50 ([3]; read-out: 3a (nM)): 0.05 nM | EC50 ([4]; read-out: 1a Q30R): < 1 nM | EC50 ([4]; read-out: 1a Q30R (nM)): 0.043 nM | EC50 ([5]; read-out: 2a JFH): < 1 nM | EC50 ([5]; read-out: 2a JFH (nM)): 0.018 nM | EC50 ([6]; read-out: 1a): < 1 nM | EC50 ([6]; read-out: 1a (nM)): 0.033 nM | EC50 ([7]; read-out: 4a): < 1 nM | EC50 ([7]; read-out: 4a (s) (nM)): 0.008 nM | EC50 ([7]; read-out: 4a (t) (nM)): 0.063 nM

COC(=O)N[C@H](C(=O)N1[C@@H](C)CC[C@H]1c1ncc(-c2ccc3c(c2)COc2cc4c(ccc5nc([C@@H]6CCCN6C(=O)[C@@H](NC(=O)OC)[C@@H](C)OC)[nH]c54)cc2-3)[nH]1)C(C)C [Compound 603]
EC50 ([1]; read-out: 2a J6): < 1 nM | EC50 ([1]; read-out: 2a Jb (t) (nM)): 0.194 nM | EC50 ([2]; read-out: 2b): < 1 nM | EC50 ([2]; read-out: 2b (s) (nM)): 0.088 nM | EC50 ([2]; read-out: 2b (t) (nM)): 0.067 nM | EC50 ([3]; read-out: 3a): < 1 nM | EC50 ([3]; read-out: 3a (nM)): 0.015 nM | EC50 ([4]; read-out: 1a Q30R): < 1 nM | EC50 ([4]; read-out: 1a Q30R (nM)): 0.146 nM | EC50 ([5]; read-out: 2a JFH): < 1 nM | EC50 ([5]; read-out: 2a JFH (nM)): 0.007 nM | EC50 ([6]; read-out: 1a): < 1 nM | EC50 ([6]; read-out: 1a (nM)): 0.009 nM | EC50 ([7]; read-out: 4a): < 1 nM | EC50 ([7]; read-out: 4a (s) (nM)): 0.022 nM

COC[C@H]1C[C@@H](c2nc3ccc4cc5c(cc4c3[nH]2)OCc2cc(-c3cnc([C@@H]4CCCN4C(=O)[C@H](NC(=O)OC)c4ccccc4)[nH]3)ccc2-5)N(C(=O)[C@@H](NC(=O)OC)C(C)C)C1 [Example MM, methyl {(1R)-2-[(2S)-2-(5-{2-[(2S,4S)-1-{(2S)-2-[(methoxycarbonyl)amino]-3-methylbutanoyl}-4-(methoxymethyl)pyrrolidin-2-yl]-1,11-dihydroisochromeno[4′,3′:6,7]naphtho[1,2-d]imidazol-9-yl}-1H-imidazol-2-yl)pyrrolidin-1-yl]-2-oxo-1-phenylethyl}carbamate]
EC50 ([1]; read-out: 2a J6): < 1 nM | EC50 ([1]; read-out: 2a J6 (s) (nM)): 0.064 nM | EC50 ([1]; read-out: 2a Jb (t) (nM)): 0.018 nM | EC50 ([2]; read-out: 2b): < 1 nM | EC50 ([2]; read-out: 2b (s) (nM)): 0.042 nM | EC50 ([2]; read-out: 2b (t) (nM)): 0.015 nM | EC50 ([3]; read-out: 3a): < 1 nM | EC50 ([3]; read-out: 3a (nM)): 0.02 nM | EC50 ([4]; read-out: 1a Q30R): < 1 nM | EC50 ([4]; read-out: 1a Q30R (nM)): 0.044 nM | EC50 ([5]; read-out: 2a JFH): < 1 nM | EC50 ([5]; read-out: 2a JFH (nM)): 0.007 nM | EC50 ([6]; read-out: 1a): < 1 nM | EC50 ([6]; read-out: 1a (nM)): 0.022 nM | EC50 ([7]; read-out: 4a): < 1 nM | EC50 ([7]; read-out: 4a (s) (nM)): 0.016 nM | EC50 ([7]; read-out: 4a (t) (nM)): 0.017 nM

CC[C@H](C)[C@H](NC(=O)OC)C(=O)N1C[C@@H](COC)C[C@H]1c1nc2ccc3cc4c(cc3c2[nH]1)OCc1cc(-c2cnc([C@@H]3CC[C@H](C)N3C(=O)[C@@H](NC(=O)OC)[C@@H](C)CC)[nH]2)ccc1-4 [Example NJ, Methyl {(2S,3S)-1-[(2S,5S)-2-(5-{2-[(2S,4S)-1-{(2S,3S)-2-[(methoxycarbonyl)amino]-3-methylpentanoyl}-4-(methoxymethyl)pyrrolidin-2-yl]-1,11-dihydroisochromeno[4′,3′:6,7]naphtho[1,2-d]imidazol-9-yl}-1H-imidazol-2-yl)-5-methylpyrrolidin-1-yl]-3-methyl-1-oxopentan-2-yl}carbamate]
EC50 ([1]; read-out: 2a J6): < 1 nM | EC50 ([1]; read-out: 2a J6 (s) (nM)): 0.939 nM | EC50 ([1]; read-out: 2a Jb (t) (nM)): 0.099 nM | EC50 ([2]; read-out: 2b): < 1 nM | EC50 ([2]; read-out: 2b (s) (nM)): 0.416 nM | EC50 ([2]; read-out: 2b (t) (nM)): 0.094 nM | EC50 ([3]; read-out: 3a): < 1 nM | EC50 ([3]; read-out: 3a (nM)): 0.019 nM | EC50 ([4]; read-out: 1a Q30R): < 1 nM | EC50 ([4]; read-out: 1a Q30R (nM)): 0.025 nM | EC50 ([5]; read-out: 2a JFH): < 1 nM | EC50 ([5]; read-out: 2a JFH (nM)): 0.007 nM | EC50 ([6]; read-out: 1a): < 1 nM | EC50 ([6]; read-out: 1a (nM)): 0.007 nM | EC50 ([7]; read-out: 4a): < 1 nM | EC50 ([7]; read-out: 4a (s) (nM)): 0.017 nM
